The results in this text go back to patent US11104589B2, “Recycling method of amphiphilic surface-active pollutants in water” (INSTITUTE OF PROCESS ENGINEERING, CHINESE ACADEMY OF …, priority 2018, dated 2021).

For this data set, the system named is Human lung cancer cell line A549 cells. The data set can be described thus: MTT cytotoxicity assay. The class given is cell-based. The settings on record: 24 hours incubation. The protocol: Human lung cancer cell line A549 cells were grown in DMEM medium supplemented with 10% (v/v) of fetal bovine serum (FBS) and 1% of penicillin streptomycin. A549 was first incubated at 37° C. for 24 hours with a density of 5000 cells per well. After being washed with phosphate buffered saline (PBS, pH=7.4), A549 cells were incubated together with 200 μL of medium having various concentrations for 24 hours (15 μ[…]). Three sets of parallel replicates were prepared for each concentration. Then, the medium was removed and replaced with 20 μL of MTT solution (5 mg/mL). A549 cells were further incubated for 3 hours. The medium having MTT was removed and replaced with 100 μL of DMSO. The plate was then shaken for 10 minutes. To assess cell viability, the optical density of the mixture at 492 nm was measured by an enzyme-linked immunosorbent assay spectrophotometer (infinite […]). For labeling, A549 cells were incubated at 37° C. for 24 hours in a cell culture dish with glass bottom at a density of 5000 cells/well and then mixed with prepared FCNs samples. […] The cell culture dish with glass bottom was covered with a tin foil until cell images were obtained by fluorescence microscopy under excitation at 408 nm, 488 nm and 561 nm.

Take `CCCCCCCCC(=O)O` [nonanoic acid]: the “toxicity to the cells (cytotoxicity, MTT)” value (concentration greater than 3840 μM) is listed as “significant toxicity to the cells”. The “effect on cell viability (cytotoxicity, MTT)” value (low concentration (15-240 μM)) is “almost no effect on cell viability”.
